A word on the inhibition: it is the share of the control response that was lost under treatment. A higher inhibition goes with a response far below the control. A word on the IC50: it is the concentration that gives 50% inhibition. High values mean weaker potency in that assay, low ones greater potency in that assay.

Here are results for 9 compounds from ChEMBL document CHEMBL4819014, “Design, synthesis and biological evaluation of imidazole and triazole-based carbamates as novel aromatase inhibitors” (Eur J Med Chem, 2021).

One data set concerns the target T1, CYP19A (aromatase) (Homo sapiens, UniProt P11511).
T1 sequence (P11511 whole entry): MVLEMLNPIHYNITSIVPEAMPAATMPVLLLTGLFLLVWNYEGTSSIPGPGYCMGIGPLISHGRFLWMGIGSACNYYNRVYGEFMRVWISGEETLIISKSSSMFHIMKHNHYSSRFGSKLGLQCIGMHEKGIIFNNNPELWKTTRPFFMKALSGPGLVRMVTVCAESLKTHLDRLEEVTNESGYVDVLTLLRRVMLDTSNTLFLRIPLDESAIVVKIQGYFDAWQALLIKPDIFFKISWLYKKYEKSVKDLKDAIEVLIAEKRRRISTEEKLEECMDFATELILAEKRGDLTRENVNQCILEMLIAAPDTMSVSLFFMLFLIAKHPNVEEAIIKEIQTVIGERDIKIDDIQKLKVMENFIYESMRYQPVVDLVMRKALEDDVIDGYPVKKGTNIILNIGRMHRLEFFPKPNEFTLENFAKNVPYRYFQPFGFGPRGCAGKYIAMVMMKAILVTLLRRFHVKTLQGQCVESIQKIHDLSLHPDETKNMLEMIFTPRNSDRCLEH
Nature of the data set: Inhibition of human CYP19A at 1 uM measured every 1 min for 60 mins by flourimetric assay.

Data set [1] concerns MCF7. In words: Cytotoxicity against human MCF7 cells assessed as metabolic activity measured after 48 hrs by MTT assay. Type of data set: functional, cell-based. The settings on record: dose 10-250 µM. (In general: Formazan colour is commonly taken as a measure of viable cells.)
Data set [2] concerns MCF7. Nature of the data set: Induction of cell cycle arrest in human MCF7 cells assessed as decrease in accumulation of cells in G1 phase at 100 to 250 uM measured after 24 hrs by PI staining based flow cytometry method. The following applies: dose 100-250 µM. It is filed as functional. (Flow cytometry measures light scatter and fluorescence of single cells or particles in a stream.)

The subject of data set [3] is MCF7. In words: Cytotoxicity against human MCF7 cells assessed as metabolic activity at 10 to 250 uM measured after 24 hrs by MTT assay. It is filed as functional. The settings on record: dose 10-250 µM.
For data set [4], the system named is MCF7. Nature of the data set: Cytotoxicity against human MCF7 cells assessed as lactate dehydrogenase activity measured after 24 hrs by microplate reader method relative to control. Type of data set: functional.
A further data set concerns the target T2, Aromatase (Homo sapiens, UniProt P11511).
T2 sequence (P11511 whole entry): T1 sequence (P11511 whole entry)
Nature of the data set: Inhibition of human CYP19A measured every 1 min for 60 mins by flourimetric assay.

The test system of data set [5] is MCF7. Nature of the data set: Induction of cell cycle arrest in human MCF7 cells assessed as accumulation of cells in S phase measured after 24 hrs by PI staining based flow cytometry method. Type of data set: functional. The following applies: dose 10-250 µM.
The subject of data set [6] is MCF7. In words: Cytotoxicity against human MCF7 cells assessed as lactate dehydrogenase activity at 250 uM measured after 24 hrs by microplate reader method relative to control. It is filed as functional.
Data set [7] deals with MCF7. Nature of the data set: Cytotoxicity against human MCF7 cells assessed as metabolic activity at 50 uM measured after 72 hrs by MTT assay. Type of data set: functional.
Data set [8] concerns MCF7. Nature of the data set: Induction of cell cycle arrest in human MCF7 cells assessed as accumulation of cells in G2/M phase at 100 to 250 uM measured after 24 hrs by PI staining based flow cytometry method. Type of data set: functional. The following applies: dose 100-250 µM.
The subject of data set [9] is MCF7. In words: Cytotoxicity against human MCF7 cells assessed as metabolic activity at 10 uM measured after 24 hrs by MTT assay. Type of data set: functional.
For data set [10], the system named is MCF7. In words: Cytotoxicity against human MCF7 cells assessed as metabolic activity at 25 uM measured after 72 hrs by MTT assay. Type of data set: functional.
Data set [11] relates to MCF7. Nature of the data set: Cytotoxicity against human MCF7 cells assessed as metabolic activity at 10 uM measured after 72 hrs by MTT assay. It is filed as functional.
The test system of data set [12] is MCF7. In words: Cytotoxicity against human MCF7 cells assessed as metabolic activity at 250 uM measured after 48 hrs by MTT assay. Type of data set: functional.
Data set [13] has as its system MCF7. In words: Cytotoxicity against human MCF7 cells assessed as metabolic activity at 100 uM measured after 48 hrs by MTT assay. It is filed as functional.

Calls of active or inactive are those of the source. The rule behind the calls is not given here.

Compound `O=C(Nc1ccc(Cl)cc1)OC(Cn1ccnc1)c1ccccc1` (stereo not drawn) registered an inhibition at 1 h, 1 µM against CYP19A (aromatase) of 62%.

`O=C(Nc1ccccc1)OC(Cn1ccnc1)c1ccccc1` (stereo not drawn) yielded an inhibition at 1 h, 1 µM against CYP19A (aromatase) of 61%.

Consider `O=C(Nc1ccccc1)OC(COc1ccccc1)Cn1ccnc1` (stereo not drawn), for which the inhibition at 1 h, 1 µM on CYP19A (aromatase) was found to be 27%.

Regarding `COc1ccc(NC(=O)OC(COc2ccccc2)Cn2ccnc2)c(OC)c1` (stereo not drawn), the inhibition at 1 h, 1 µM at CYP19A (aromatase) worked out at 25%.

For the compound `O=C(Nc1ccc(Cl)cc1)OC(COc1ccccc1)Cn1ccnc1` (stereo not drawn), the Activity result is “Dose-Dependent Effect” in the data set with MCF7 [1], 50% with MCF7 [3], “Dose-Dependent Effect” in the data set with MCF7 [5] and 25.18% with MCF7 [7]. The outcome with MCF7 [2] and in the data set on MCF7 [8] was Active. Also, the “fold change (FC)” value in the data set on MCF7 [4] was found to be 4; in the data set with MCF7 [6] it was 4.8. Besides, on Aromatase, the IC50 was 860 nM. Besides, the inhibition at 1 h, 1 µM on CYP19A (aromatase) was 72%.

As for `O=C(NCc1ccccc1)OC(Cn1ccnc1)c1ccccc1` (stereo not drawn), the Activity was 43.67% in the data set with MCF7 [9]; 55.06% with MCF7 [10]; 50.16% in the data set with MCF7 [11]; 30.75% with MCF7 [12]; 10.39% in the data set on MCF7 [13]; “Dose-Dependent Effect” with MCF7 [5]. Further, in the data set on MCF7 [7], the Activity is reported as 46.7%. The entries for the “fold change (FC)” value with MCF7 [4] and in the data set with MCF7 [6] were 4 and 4.8, respectively. The compound further came in with a half-inhibitory concentration (IC50) on Aromatase of 820 nM. At CYP19A (aromatase), this compound yielded an inhibition at 1 h, 1 µM of 81%.

On CYP19A (aromatase), `O=C(Nc1ccccc1)OC(COc1ccc(Cl)cc1)Cn1cncn1` (stereo not drawn) returned an inhibition at 1 h, 1 µM of 46%.

Compound `COc1ccc(OCC(Cn2cncn2)OC(=O)Nc2ccc(Cl)cc2)cc1` (stereo not drawn) had an inhibition at 1 h, 1 µM at CYP19A (aromatase) of 49%.

Compound `COc1ccc(NC(=O)OC(COc2ccccc2)Cn2ccnc2)cc1` (stereo not drawn) came in with an inhibition at 1 h, 1 µM at CYP19A (aromatase) of 61%.
